This series in a line: AMES test (mutagenicity). The series is classed as cell-based.

As for `CCCCOc1ccc(C(F)(F)F)cc1N` [5-Trifluormethyl-2-n-butoxy-anilin], the AMES-Test entry is “nicht-mutagen”.

Source of the values: patent EP0300390A1, “Trifluoromethyl-alkoxy-anilin, process for their preparation and their use in the ice-colour technique” (HOECHST AKTIENGESELLSCHAFT, priority 1987, dated 1989).
